Measured values taken from ChEMBL document CHEMBL4422689, “Discovery of 4'-OH-flurbiprofen Mannich base derivatives as potential Alzheimer's disease treatment with multiple inhibitory activities” (Bioorg Med Chem, 2019).
Calls of active or inactive are those of the source. The calls are words filed in the database; no cut-off is given here.

Assays:
[1] = Antioxidant activity assessed as trolox equivalents of AAPH radical scavenging activity at 1 to 10 uM preincubated for 15 mins followed by AAPH addition measured every min for 90 mins by ORAC-FL assay; format: functional
[2] = target: Amyloid-beta precursor protein (Homo sapiens) (UniProt P05067); experiment: Inhibition of HFIP-pretreated human amyloid beta (1 to 42) self-induced aggregation at 25 uM measured after 24 hrs by thioflavin-T fluorescence assay relative to control
Chain of Amyloid-beta precursor protein (Homo sapiens) (P05067 whole entry): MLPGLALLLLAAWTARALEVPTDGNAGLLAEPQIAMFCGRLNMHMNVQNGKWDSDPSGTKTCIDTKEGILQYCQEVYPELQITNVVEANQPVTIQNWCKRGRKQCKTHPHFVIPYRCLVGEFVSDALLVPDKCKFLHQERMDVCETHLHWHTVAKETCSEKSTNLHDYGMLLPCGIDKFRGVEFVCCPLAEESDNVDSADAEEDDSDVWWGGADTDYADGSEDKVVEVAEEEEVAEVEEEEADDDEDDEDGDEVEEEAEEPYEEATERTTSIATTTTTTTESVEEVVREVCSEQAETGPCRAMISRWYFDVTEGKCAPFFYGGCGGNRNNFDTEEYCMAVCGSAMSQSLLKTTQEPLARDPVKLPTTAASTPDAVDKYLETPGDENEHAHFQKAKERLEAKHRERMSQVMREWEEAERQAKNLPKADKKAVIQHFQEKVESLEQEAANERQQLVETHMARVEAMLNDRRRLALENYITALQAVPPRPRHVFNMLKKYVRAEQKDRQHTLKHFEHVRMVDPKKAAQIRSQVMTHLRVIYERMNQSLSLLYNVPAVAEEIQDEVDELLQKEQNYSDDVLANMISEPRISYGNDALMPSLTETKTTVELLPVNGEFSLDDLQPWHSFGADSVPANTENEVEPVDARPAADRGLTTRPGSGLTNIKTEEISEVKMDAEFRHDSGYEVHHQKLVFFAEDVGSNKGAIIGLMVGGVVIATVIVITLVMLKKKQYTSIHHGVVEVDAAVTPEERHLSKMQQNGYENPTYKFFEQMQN

[3] = Inhibition of Cu2+-induced human amyloid beta (1 to 42) aggregation at 25 uM after 24 hrs by thioflavin T-based fluorometric assay relative to control
[4] = target: Acetylcholinesterase (Electrophorus electricus) (UniProt O42275); experiment: Inhibition of Electrophorus electricus AChE at 50 uM using acetylthiocholine iodide as substrate measured after 15 mins by Ellman's method relative to control
Chain of Acetylcholinesterase (Electrophorus electricus) (O42275 24-633 limits assumed): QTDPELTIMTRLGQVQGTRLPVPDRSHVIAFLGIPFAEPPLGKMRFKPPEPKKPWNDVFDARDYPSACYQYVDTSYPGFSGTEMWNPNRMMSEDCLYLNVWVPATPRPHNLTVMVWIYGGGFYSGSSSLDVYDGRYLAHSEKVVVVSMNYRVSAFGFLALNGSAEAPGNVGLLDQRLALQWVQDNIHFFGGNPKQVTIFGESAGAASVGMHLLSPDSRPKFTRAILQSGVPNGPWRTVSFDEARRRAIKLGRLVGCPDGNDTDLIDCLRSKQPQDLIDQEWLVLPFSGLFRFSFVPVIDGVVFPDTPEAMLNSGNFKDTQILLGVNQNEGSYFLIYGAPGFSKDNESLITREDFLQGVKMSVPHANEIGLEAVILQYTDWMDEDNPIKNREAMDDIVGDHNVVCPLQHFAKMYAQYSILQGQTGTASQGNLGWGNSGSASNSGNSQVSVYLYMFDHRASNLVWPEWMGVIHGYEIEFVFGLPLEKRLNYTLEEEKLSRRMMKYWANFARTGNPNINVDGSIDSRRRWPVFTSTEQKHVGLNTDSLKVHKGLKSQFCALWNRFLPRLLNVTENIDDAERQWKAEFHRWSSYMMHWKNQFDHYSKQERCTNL

[5] = target: Butyrylcholinesterase (BuChE) (Rattus norvegicus, UniProt Q9JKC1); experiment: (§1) Inhibition of rat serum BuChE at 25 uM using butyrylthiocholine iodide as substrate after 15 mins by Ellman's method relative to control; details: rat serum, probe butyrylthiocholine iodide
Chain of Butyrylcholinesterase (BuChE) (Q9JKC1 whole entry): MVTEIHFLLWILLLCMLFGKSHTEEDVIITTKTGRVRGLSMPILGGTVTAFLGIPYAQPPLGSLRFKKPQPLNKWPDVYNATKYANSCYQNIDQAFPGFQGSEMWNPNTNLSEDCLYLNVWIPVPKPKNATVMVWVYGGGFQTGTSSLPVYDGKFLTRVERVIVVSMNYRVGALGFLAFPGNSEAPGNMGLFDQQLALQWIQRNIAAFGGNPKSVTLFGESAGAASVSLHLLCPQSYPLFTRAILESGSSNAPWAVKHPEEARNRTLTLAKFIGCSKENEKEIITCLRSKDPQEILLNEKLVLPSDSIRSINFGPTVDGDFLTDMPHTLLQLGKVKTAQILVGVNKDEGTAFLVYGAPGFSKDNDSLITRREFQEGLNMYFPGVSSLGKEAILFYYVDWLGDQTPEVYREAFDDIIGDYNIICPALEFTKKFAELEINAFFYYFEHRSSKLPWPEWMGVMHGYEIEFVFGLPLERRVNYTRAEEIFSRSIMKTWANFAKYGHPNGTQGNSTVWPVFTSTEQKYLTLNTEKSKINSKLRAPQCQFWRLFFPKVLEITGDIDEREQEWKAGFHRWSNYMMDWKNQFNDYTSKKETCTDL

[6] = Metal chelating activity of the compound assessed as formation of Al3+-compound complex by measuring red shift in maximum absorption at 37.5 uM after 30 mins by UV-vis absorption spectra analysis
[7] = Metal chelating activity of the compound assessed as formation of Cu2+-compound complex by measuring red shift in maximum absorption at 37.5 uM after 30 mins by UV-vis absorption spectra analysis
[8] = Metal chelating activity of the compound assessed as formation of Fe2+-compound complex by measuring red shift in maximum absorption at 37.5 uM after 30 mins by UV-vis absorption spectra analysis
[9] = Metal chelating activity of the compound assessed as formation of Cu2+-compound complex by measuring absorbance at 37.5 uM after 30 mins by UV-vis absorption spectra analysis
[10] = Metal chelating activity of the compound assessed as formation of Fe2+-compound complex by measuring absorbance at 37.5 uM after 30 mins by UV-vis absorption spectra analysis
[11] = Metal chelating activity of the compound assessed as formation of Zn2+-compound complex at 37.5 uM after 30 mins by UV-vis absorption spectra analysis
[12] = Permeability of the compound in pH 7.4 PBS/EtOH at 100 ug/ml after 18 hrs by PAMPA-BBB assay
[13] = tested on: BV-2; experiment: Cytotoxicity against mouse BV2 cells assessed as effect on cell viability up to 10 uM after 24 hrs by MTT assay; format: cell-based; details: bv-2, 24 h
[14] = tested on: BV-2; experiment: Cytotoxicity against LPS-stimulated mouse BV2 cells assessed as effect on cell viability at 0.5 to 10 uM pretreated for 30 mins followed by LPS-stimulation and measured after 24 hrs by MTT assay; format: cell-based; details: bv-2, 24 h
[15] = tested on: BV-2; experiment: Cytotoxicity against LPS-stimulated mouse BV2 cells assessed as effect on cell viability at 2.5 to 10 uM pretreated for 30 mins followed by LPS-stimulation and measured after 24 hrs by MTT assay; format: cell-based; details: bv-2, 24 h
[16] = tested on: BV-2; experiment: Inhibition of LPS-induced nitric oxide production in mouse BV2 cells at 0.5 uM pretreated for 30 mins followed by LPS-stimulation and measured after 24 hrs by Griess assay relative to control; format: functional
[17] = tested on: BV-2; experiment: Inhibition of LPS-induced nitric oxide production in mouse BV2 cells at 2.5 uM pretreated for 30 mins followed by LPS-stimulation and measured after 24 hrs by Griess assay relative to control; format: functional
[18] = tested on: BV-2; experiment: Inhibition of LPS-induced nitric oxide production in mouse BV2 cells at 10 uM pretreated for 30 mins followed by LPS-stimulation and measured after 24 hrs by Griess assay relative to control; format: functional
[19] = tested on: BV-2; experiment: Inhibition of LPS-induced TNFalpha production in mouse BV2 cells at 0.5 uM pretreated for 30 mins followed by LPS-stimulation and measured after 24 hrs by ELISA relative to control; format: functional
[20] = tested on: BV-2; experiment: Inhibition of LPS-induced TNFalpha production in mouse BV2 cells at 2.5 uM pretreated for 30 mins followed by LPS-stimulation and measured after 24 hrs by ELISA relative to control; format: functional
[21] = tested on: BV-2; experiment: Inhibition of LPS-induced TNFalpha production in mouse BV2 cells at 10 uM pretreated for 30 mins followed by LPS-stimulation and measured after 24 hrs by ELISA relative to control; format: functional
[22] = target: Butyrylcholinesterase (Rattus norvegicus, UniProt Q9JKC1); experiment: as §1; details: 0.25 h, 25 µM
Chain of Butyrylcholinesterase (Q9JKC1 whole entry): as above

SMILES	Activity [1] [µMequiv/µM]	inhibition [2] [%]	inhibition [3] [%]	inhibition [4] [%]	inhibition at 0.25 h, 25 µM [5] [%]	other results
CCN(Cc1ccc(N(C)C)cc1)Cc1cc(-c2ccc(C(C)C(=O)OC)cc2F)ccc1O (stereo not drawn)	4.09	65	38	34.1	2.21	Activity [6]: 278 nm; Activity [7]: 270 nm; Activity [8]: 270 nm; Activity [9]: 0.1; Activity [10]: 0.1; Activity [11]: inactive; Papp at 18 h, 100 ug/ml [12]: 8.54 ×10⁻⁶ cm/s; Activity [13]: Non-Toxic; Activity [14]: Non-Toxic; Activity [15]: Non-Toxic; inhibition at 0.5 µM [16]: 28.3%; inhibition at 2.5 µM [17]: 32.5%; inhibition at 10 µM [18]: 65%; inhibition at 0.5 µM [19]: 25.3%; inhibition at 2.5 µM [20]: 55.3%; inhibition at 10 µM [21]: 68.2%
COC(=O)C(C)c1ccc(-c2ccc(O)c(CN3CCOCC3)c2)c(F)c1 (stereo not drawn)	2.14	12.9	22.1	14.9	1.19	
COC(=O)C(C)c1ccc(-c2ccc(O)c(CN3CCCCC3)c2)c(F)c1 (stereo not drawn)	1.51	15.5	11.2	22.9	1.95	
COC(=O)C(C)c1ccc(-c2ccc(O)c(CN3CCN(C)CC3)c2)c(F)c1 (stereo not drawn)	2.12	34.1	16.2	13.3	1.12	
COc1cc2c(cc1OC)C(=O)C(CC1CCN(Cc3ccccc3)CC1)C2 (stereo not drawn)			< 5			
COC(=O)C(C)c1ccc(-c2ccc(O)c(CN(C)Cc3ccccc3)c2)c(F)c1 (stereo not drawn)	1.59	36.7	31.2	35.1	1.28	
CCN1CCN(Cc2cc(-c3ccc(C(C)C(=O)OC)cc3F)ccc2O)CC1 (stereo not drawn)	2.16	28.9	33.9	7.13	4.28	
CCN(CC)Cc1cc(-c2ccc(C(C)C(=O)OC)cc2F)ccc1O (stereo not drawn)	1.81	8.3	29.7	14.3	1.58	
CCN(Cc1cc(-c2ccc(C(C)C(=O)OC)cc2F)ccc1O)Cc1ccccc1N(C)C (stereo not drawn)	1.57	60.6	42.1	45.5	16.3	
CC(C(=O)O)c1ccc(-c2ccccc2)c(F)c1 (stereo not drawn) [FLURBIPROFEN]	0.18	12.8	7.56	15.6		inhibition (INH) [22]: Not Active; Papp at 18 h, 100 ug/ml [12]: 1.56 ×10⁻⁶ cm/s; inhibition at 2.5 µM [17]: 11.8%; inhibition at 10 µM [18]: 23%; inhibition at 2.5 µM [20]: 9.6%; inhibition at 10 µM [21]: 30.3%
CCN(Cc1cc(-c2ccc(C(C)C(=O)OC)cc2F)ccc1O)Cc1ccccc1OC (stereo not drawn)	2.6	60.5	42.5	28	5.12	
COC(=O)C(C)c1ccc(-c2ccc(O)c(CN(C)Cc3ccccc3OC)c2)c(F)c1 (stereo not drawn)	2.12	60.6	38.8	28	3.06	
COC(=O)C(C)c1ccc(-c2ccc(O)c(CN3CCCC3)c2)c(F)c1 (stereo not drawn)	2.13	15.8	28.5	17	1.38	
COc1cc(/C=C/C(=O)CC(=O)/C=C/c2ccc(O)c(OC)c2)ccc1O			67.2			
COC(=O)C(C)c1ccc(-c2ccc(O)c(CN3CCN(Cc4ccccc4)CC3)c2)c(F)c1 (stereo not drawn)	1.19	28.4	39.2	38.3	2.86	
COC(=O)C(C)c1ccc(-c2ccc(O)c(CN(C)C)c2)c(F)c1 (stereo not drawn)	2.07	42.7	38.1	18.6	2.56	Papp at 18 h, 100 ug/ml [12]: 6.78 ×10⁻⁶ cm/s; Activity [13]: Non-Toxic; Activity [14]: Non-Toxic; Activity [15]: Non-Toxic; inhibition at 0.5 µM [16]: 21.7%; inhibition at 2.5 µM [17]: 39.2%; inhibition at 10 µM [18]: 61.7%; inhibition at 0.5 µM [19]: 21.8%; inhibition at 2.5 µM [20]: 51.2%; inhibition at 10 µM [21]: 72.9%
CCN(Cc1ccccc1)Cc1cc(-c2ccc(C(C)C(=O)OC)cc2F)ccc1O (stereo not drawn)	2.24	36.8	34.9	36.4	4.61	
